As usually defined, the MIC is the least concentration at which growth counts as inhibited. Higher therefore signals a need for much substance.

In data set [1] the test system is A. baumannii.
The subject of data set [2] is HK-2 cell line. As to the kind of experiment: In vitro renal cell toxicity assay (resazurin reduction). The procedure: MICs were determined as described herein. HK-2 cell IC50 values were determined as described herein. Values are reported relative to Polymyxin B.
The subject of data set [3] is E. coli.
For data set [4], the system named is P. aeruginosa.
For data set [5], the system named is K. pneumoniae.
For data set [6], the system named is K. pneumoniae strains with elevated MICs to Polymyxin B. As to the kind of experiment: MIC against strains with elevated MICs to Polymyxin B. In kind it is cell-based, Klebsiella pneumoniae. Particulars: Table 6D; for MIC K. pneumoniae 062: strain 062, elevated MIC to Polymyxin B; for MIC K. pneumoniae 063: strain 063, elevated MIC to Polymyxin B; for MIC K. pneumoniae 064: strain 064, elevated MIC to Polymyxin B. An outline of the steps:
(§1)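 Colonies picked from an 18-24 hour Mueller-Hinton agar plate are suspended directly and adjusted to 0.5 McFarland. Each MIC is run in duplicate. Values within 2-fold give the lower one; wider spread voids the assay; repeated testing yields the modal value.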

The test system of data set [7] is A. baumanii strains with elevated MICs to Polymyxin B. The description is as above. In kind it is cell-based, Acinetobacter baumannii. Particulars: Table 6D; for MIC A. baumannii 053: strain 053, elevated MIC to Polymyxin B; for MIC A. baumannii 056: strain 056, elevated MIC to Polymyxin B; for MIC A. baumannii 068: strain 068, elevated MIC to Polymyxin B. In short, it runs like this: as §1

Data set [8] concerns E. coli strains with elevated MICs to Polymyxin B. The description is as above. It counts as cell-based, Escherichia coli. Particulars: Table 6D; for MIC E. coli 058: strain 058, elevated MIC to Polymyxin B; for MIC E. coli 059: strain 059, elevated MIC to Polymyxin B; for MIC E. coli 060: strain 060, elevated MIC to Polymyxin B; for MIC E. coli 061: strain 061, elevated MIC to Polymyxin B. An outline of the steps: as §1

Data set [9] concerns P. aeruginosa strains with elevated MICs to Polymyxin B. Described as above. It counts as cell-based, Pseudomonas aeruginosa. To be noted: Table 6D; for MIC P. aeruginosa 065: strain 065, elevated MIC to Polymyxin B; for MIC P. aeruginosa 066: strain 066, elevated MIC to Polymyxin B; for MIC P. aeruginosa 067: strain 067, elevated MIC to Polymyxin B. An outline of the steps: as §1

Data set [10] deals with E. coli. As to the kind of experiment: MIC in the presence of a fixed concentration (2 μg/mL) of Rifampicin. In kind it is cell-based, Escherichia coli. To be noted: Rifampicin 2 μg/mL, Table 5D.
The test system of data set [11] is A. baumannii. As to the kind of experiment: MIC in the presence of […] of rifampicin. In kind it is cell-based, Acinetobacter baumannii. The procedure:
(§2) The inoculum was prepared by making a direct suspension of isolated colonies (selected from an 18-24 hour Mueller-Hinton agar plate) adjusted to the 0.5 McFarland standard. […] The assays were performed in duplicate. […] In cases where the duplicate values varied by less than 2-fold, the lower of the two values is reported. If a variation of greater than 2-fold was observed, the assay was considered non-valid. Several of the compounds were subjected to multiple tests, and where this is the case, the MIC reflects the modal value obtained.

Data set [12] relates to K. pneumoniae. As to the kind of experiment: MIC in the presence of a fixed concentration (2 μg/mL) of Rifampicin. It counts as cell-based, Klebsiella pneumoniae. Particulars: Rifampicin 2 μg/mL, Table 5D. The procedure: as §2
[13] abbreviates: absence of a second agent, Table 6B.

In brackets after ≈: the same amount, converted by molar mass. Read-outs that look alike come from different tables or passages of the source. Numbered stars: 1 amine (or outer) side, 2 acyl side, 3 side chain; on linkers, the order of the positions; unused ones are H or OH. Bridge positions count the residues as written; N and C are the ends. Square brackets hold non-standard residues; d marks the D form. Peptide text beside a SMILES is read from it. X7 = CC(C)CN([C@@H](CN)C(=O)[*:2])[*:1]; aThr = C[C@H](O)[C@H](N)C(=O)O; Dab = NCC[C@H](N)C(=O)O

For `CC(C)CN[C@@H](CN)C(=O)N[C@H](C(=O)N[C@@H](CCN)C(=O)N[C@H]1CCNC(=O)[C@H]([C@@H](C)O)NC(=O)[C@H](CCN)NC(=O)[C@H](CCN)NC(=O)[C@H](CC(C)C)NC(=O)[C@@H](Cc2ccccc2)NC(=O)[C@H](CCN)NC1=O)[C@H](C)O` [Example D51, (S)-2-(2-methylpropylamino) 3-aminopropanoyl polymyxin B nonapeptide] (H-[X7][aThr][Dab][Dab][Dab][dF]L[Dab][Dab]T; lactam 4-C), the MIC worked out at 1 µg/mL (≈ 0.905 µM) in data set [1] and 0.5 µg/mL (≈ 0.452 µM) in data set [3]. For the same compound, in data set [2], the “HK-2 IC50 rel to PMB” value was 34.

Turning to “(S)-1-(2- methylpropyl)- piperazine-2- carbonyl polymyxin E nonapeptide [Example D56]”, in data set [4] (sole activity, Table 6C), the “MIC, P. aeruginosa ATCC 27853” value was 0.5 micrograms/mL and the “MIC, P. aeruginosa CCUG 59347” value is listed as 1 micrograms/mL. Besides, in data set [5] (sole activity, Table 6C), the “MIC, K. pneumoniae ATCC 4352” value is recorded as 0.125 micrograms/mL and the “MIC, K. pneumoniae ATCC BAA-2146” value came to 0.25 micrograms/mL. In addition, in data set [1] (sole activity, Table 6C), the “MIC, A. baumannii ATCC BAA-747” value is listed as 0.5 micrograms/mL and the “MIC, A. baumannii NCTC 13424” value was 0.5 micrograms/mL. Also, the “HK-2 IC50 rel to PMB*” value in data set [2] was 22. For the same compound, in data set [3] (sole activity, Table 6C), the “MIC, E. coli ATCC 25922” value turned out to be 0.25 micrograms/mL and the “MIC, E. coli NCTC 13441” value is 0.25 micrograms/mL.

For the compound “trans-4-(2- methylpropyl) pyrrolidine-3-carbonyl polymyxin B nonapeptide [Example D38]”, in [4] (setting [13]), the “MIC, P. aeruginosa ATCC 27853” value turned out to be 1 micrograms/mL and the “MIC, P. aeruginosa CCUG 59347” value stood at 2 micrograms/mL. Further, in data set [5] (setting [13]), the “MIC, K. pneumoniae ATCC 4352” value turned out to be 4 micrograms/mL and the “MIC, K. pneumoniae ATCC BAA-2146” value is listed as 8 micrograms/mL. Further, in data set [1] (setting [13]), the “MIC, A. baumannii ATCC BAA-747” value is >8 micrograms/mL and the “MIC, A. baumannii NCTC 13424” value is reported as 2 micrograms/mL. Moreover, the “HK-2 IC50 rel to PMB” value in data set [2] amounted to 6.3. Besides, in data set [3] (setting [13]), the “MIC, E. coli ATCC 25922” value is recorded as 8 micrograms/mL and the “MIC, E. coli NCTC 13441” value is given as 8 micrograms/mL.

As to “trans-4-(2- methylpropyl) pyrrolidine-3- carbonyl-L-Thr- L-Dap-polymyxin B heptapeptide [Example D68]”, in data set [6], the “MIC K. pneumoniae 062” value came to 64 micrograms/mL, the “MIC K. pneumoniae 063” value turned out to be 64 micrograms/mL and the “MIC K. pneumoniae 064” value is 16 micrograms/mL. In addition, in [7], the “MIC A. baumannii 053” value is reported as >256 micrograms/mL, the “MIC A. baumannii 056” value is on record as 128 micrograms/mL and the “MIC A. baumannii 068” value was 16 micrograms/mL. For the same compound, in data set [4] (sole activity, Table 6C), the “MIC, P. aeruginosa ATCC 27853” value came to 0.5 micrograms/mL and the “MIC, P. aeruginosa CCUG 59347” value was found to be 0.5 micrograms/mL. Also, in [5] (sole activity, Table 6C), the “MIC, K. pneumoniae ATCC 4352” value was determined as 0.125 micrograms/mL. Moreover, in data set [1] (sole activity, Table 6C), the “MIC, A. baumannii ATCC BAA-747” value came to 0.25 micrograms/mL and the “MIC, A. baumannii NCTC 13424” value is listed as 0.5 micrograms/mL. Further, in data set [8], the “MIC E. coli 058” value is on record as 8 micrograms/mL, the “MIC E. coli 059” value worked out at 16 micrograms/mL, the “MIC E. coli 060” value is on record as 8 micrograms/mL and the “MIC E. coli 061” value was 32 micrograms/mL. Besides, the “HK-2 IC50 rel to PMB*” value in [2] was determined as 5.3. Moreover, in [3] (sole activity, Table 6C), the “MIC, E. coli ATCC 25922” value came out at 0.25 micrograms/mL and the “MIC, E. coli NCTC 13441” value came to 0.25 micrograms/mL. Moreover, in data set [9], the “MIC P. aeruginosa 065” value was 16 micrograms/mL, the “MIC P. aeruginosa 066” value came to 16 micrograms/mL and the “MIC P. aeruginosa 067” value is on record as >256 micrograms/mL.

On to “2-aminomethyl- 4-methyl pentanoyl polymyxin E nonapeptide [Example D53]”, for which, in [4] (sole activity, Table 6C), the “MIC, P. aeruginosa ATCC 27853” value came to 0.5 micrograms/mL and the “MIC, P. aeruginosa CCUG 59347” value amounted to 1 micrograms/mL. Further, in data set [5] (sole activity, Table 6C), the “MIC, K. pneumoniae ATCC 4352” value is 0.25 micrograms/mL and the “MIC, K. pneumoniae ATCC BAA-2146” value is 1 micrograms/mL. For the same compound, in data set [1] (sole activity, Table 6C), the “MIC, A. baumannii ATCC BAA-747” value came to 1 micrograms/mL and the “MIC, A. baumannii NCTC 13424” value turned out to be 2 micrograms/mL. In data set [2], the “HK-2 IC50 rel to PMB*” value came to 18.2. Moreover, in data set [3] (sole activity, Table 6C), the “MIC, E. coli ATCC 25922” value is listed as 1 micrograms/mL and the “MIC, E. coli NCTC 13441” value turned out to be 1 micrograms/mL.

Take “(S)-1-octyl-piperazine- 2-carbonyl polymyxin B nonapeptide [Example D28]”: in data set [6], the “MIC K. pneumoniae 062” value amounted to 8 micrograms/mL, the “MIC K. pneumoniae 063” value is 16 micrograms/mL and the “MIC K. pneumoniae 064” value was 2 micrograms/mL. Also, in data set [6] (strain 655, elevated MIC to Polymyxin B), the “MIC K. pneumoniae 655” value turned out to be 16 micrograms/mL. Also, in [10] (E. coli ATCC 25922), the “MIC in combination with Rifampicin, E. coli ATCC 25922” value worked out at 1 micrograms/mL. Further, the “MIC in combination with Rifampicin, E. coli NCTC 13441” value in [10] (E. coli NCTC 13441) was 0.5 micrograms/mL. Further, in data set [7], the “MIC A. baumannii 053” value came out at 32 micrograms/mL, the “MIC A. baumannii 056” value came to 16 micrograms/mL and the “MIC A. baumannii 068” value worked out at 4 micrograms/mL. In addition, in data set [7] (strain 070, elevated MIC to Polymyxin B), the “MIC A. baumannii 070” value is on record as 4 micrograms/mL. Further, in data set [4] (setting [13]), the “MIC, P. aeruginosa ATCC 27853” value amounted to 0.5 micrograms/mL and the “MIC, P. aeruginosa CCUG 59347” value amounted to 1 micrograms/mL. Moreover, in data set [5] (setting [13]), the “MIC, K. pneumoniae ATCC 4352” value was found to be 0.25 micrograms/mL and the “MIC, K. pneumoniae ATCC BAA-2146” value is given as 0.5 micrograms/mL. For the same compound, in [1] (setting [13]), the “MIC, A. baumannii ATCC BAA-747” value worked out at 0.25 micrograms/mL and the “MIC, A. baumannii NCTC 13424” value came out at 1 micrograms/mL. Moreover, in data set [8], the “MIC E. coli 058” value worked out at 0.5 micrograms/mL, the “MIC E. coli 059” value is listed as 0.5 micrograms/mL, the “MIC E. coli 060” value amounted to 2 micrograms/mL and the “MIC E. coli 061” value came out at 4 micrograms/mL. Moreover, the “MIC in combination with Rifampicin, A. baumannii ATCC BAA-747” value in data set [11] (A. baumannii ATCC BAA-747, Table 5D) is 1 micrograms/mL. In data set [11] (A. baumannii NCTC 13424, Table 5D), the “MIC in combination with Rifampicin, A. baumannii NCTC 13424” value is reported as 1 micrograms/mL. For the same compound, the “MIC in combination with Rifampicin, K. pneumoniae ATCC 4352” value in data set [12] (K. pneumoniae ATCC 4352) was 0.5 micrograms/mL. Further, in data set [12] (K. pneumoniae ATCC BAA-2146), the “MIC in combination with Rifampicin, K. pneumoniae ATCC BAA-2146” value amounted to 2 micrograms/mL. In [3] (setting [13]), the “MIC, E. coli ATCC 25922” value came to 0.125 micrograms/mL and the “MIC, E. coli NCTC 13441” value worked out at 0.125 micrograms/mL. In addition, in data set [9], the “MIC P. aeruginosa 065” value is 0.5 micrograms/mL, the “MIC P. aeruginosa 066” value came out at 4 micrograms/mL and the “MIC P. aeruginosa 067” value is given as 32 micrograms/mL.

In the case of `CC(C)CC1CNCC1C(=O)N[C@H](C(=O)N[C@@H](CCN)C(=O)N[C@H]1CCNC(=O)[C@H]([C@@H](C)O)NC(=O)[C@H](CCN)NC(=O)[C@H](CCN)NC(=O)[C@H](CC(C)C)NC(=O)[C@@H](Cc2ccccc2)NC(=O)[C@H](CCN)NC1=O)[C@H](C)O` (single isomer, unassigned) [Example D39, trans-4-(2-methylpropyl) pyrrolidine-3-carbonyl polymyxin B nonapeptide], the “HK-2 IC50 rel to PMB” value in [2] amounted to 5.4.
